How the values were obtained:
Type in all cases: cell-based, human
[1] = system: HPDE, Capan-1, AsPC-1, and BxPC-3 cells; test: BrdU incorporation cell proliferation assay, all tested cell lines; conditions: all tested cells, gemcitabine 20 μM, data not shown
Experimental: To assess cell proliferation and apoptosis, cells were plated in duplicates on a 96-well plate and incubated in 100 μl of the cell line appropriate media described above. Cells were transfected with siRNA soon after complete attachment (approx. 3 h after seeding). Cells were treated with vehicle, 20 μM gemcitabine, 20 μM T16Ainh-A01, or 10 μM free NS3728 (see below) after culture in a humidified 37 °C and 5 % CO2 incubator overnight. BrdU incorporation was measured using Cell Proliferation ELISA, BrdU (chemiluminescent) (Roche Diagnostics A/S, Denmark) following the manufacturer’s instructions. Caspases 3, 6, and 7 activation was evaluated using Homogeneous Caspases Assay (fluorimetric) (Roche Diagnostics A/S, Denmark).
Fig. 7 VRAC, but not ANO1, regulates cellular proliferation. a Summary of BrdU incorporation in HPDE, Capan-1, AsPC-1, and BxPC-3 cells after various treatments as indicated. Cells were transfected shortly after complete attachment (approx. 3 h) and BrdU incorporation was assessed 36 h after transfection. To investigate effect of inhibitors, cells were incubated for 24 h with respective inhibitor. Values shown are relative to appropriate control. Data shown represents mean ± s.e.m. of n = 4–6 individual experiments. **p ≤ 0.01 and ***p ≤ 0.001 when compared with control

[2] = system: HPDE cells; test: Fura-2 measurement of free intracellular calcium, ATP stimulation; conditions: ATP 10 μM, no inhibitor
Experimental: (§1) HPDE and BxPC-3 cells were incubated with 2 μM Fura-2 AM (Sigma-Aldrich, Denmark) for 30 min at 37 °C. Cells were subsequently washed with Krebs solution containing (in mM) 150 NaCl, 6 KCl, 1.5 CaCl2, 1 MgCl2, 10 glucose, and 10 HEPES; pH was adjusted to 7.4 using NaOH. Coverslips were mounted on a recording chamber. In the beginning of the experiment, cells were perfused with Krebs solution at 4 ml/min until baseline was stable. […] Changes in [Ca^2+]i were measured by a TIRF iMIC microscope (TILL Photonics, Germany). Fura-2 AM loaded cells were illuminated at 340 nm for 80 ms and 380 nm for 80 ms at 1 s intervals using a TILL Polychrome monochromator. Five hundred-nanometer emission images were captured by an image-intensifying, charge-coupled device (CCD) camera (TILL Photonics, Germany) and digitized by an image processing system (TILL Photonics, Germany). The monochromator and CCD camera were controlled by LA Live Acquisition software, which was also used for image analysis. The [Ca^2+]i was presented as the Fura-2 ratio of the fluorescence signals obtained at 340/380 nm.
(§2) Fig. 8 Cl^− channel inhibitors alter ATP-induced Ca^2+ signals. Intracellular Ca^2+ measurements in FURA-2 loaded HPDE and BxPC-3 cells. a Representative single-cell traces of individual experiments. Different substances were applied as indicated. […] (n) = number of individual experiments; each containing between 5–45 single cells.***p ≤ 0.001 when compared to no inhibitor condition; ^## p ≤ 0.01 when compared with HPDE no inhibitor
(§3) Activation of CaCC requires an increase in [Ca^2+]i, which can be achieved by stimulation of receptors such as purinergic receptors. Therefore, we studied the effect of Cl^− channel inhibitors on changes in [Ca^2+]i induced by purinergic signaling. We chose HPDE cells with very low expression levels of ANO1 and the highly ANO1 overexpressing cell line BxPC-3 for investigation. Fura-2 loaded HPDE and BxPC-3 cells were stimulated with ATP (10 μM) (Fig. 8) or exposed to the inhibitor prior to stimulation. ATP stimulation caused a 0.46 ± 0.03 peak increase in the Fura-2 ratio in HPDE and 0.55 ± 0.02 in BxPC-3 cells. […] However, no effect of the inhibitor on basal Ca^2+ level was observed.

[3] = system: BxPC-3 cells; test: as above; conditions: BxPC-3, ATP 10 μM, no inhibitor
Experimental: as §1, §2, §3

SMILES	proliferation (BrdU incorporation) [1]	peak increase in the Fura-2 ratio [2]	peak increase in the Fura-2 ratio [3]
Nc1ccn([C@@H]2O[C@H](CO)[C@@H](O)C2(F)F)c(=O)n1 [gemcitabine]	almost complete inhibition of proliferation	–	–
Nc1ncnc2c1ncn2[C@@H]1O[C@H](COP(=O)(O)OP(=O)(O)OP(=O)(O)O)[C@@H](O)[C@H]1O [ATP]	–	0.46 ± 0.03	0.55 ± 0.02

— publication PMC4464647, “ANO1 (TMEM16A) in pancreatic ductal adenocarcinoma (PDAC)” (Pflugers Archiv, 2014)
